In ChEMBL document CHEMBL1268875, “Isoflavone derivatives inhibit NF-κB-dependent transcriptional activity” (Bioorg Med Chem Lett, 2010):
Activity calls are given as the source filed them. The calls are words filed in the database; no cut-off is given here.

How the values were obtained:
Format in all cases: cell-based
HCT-116 [1] = assay: Inhibition of TNF-alpha-induced Nuclear factor-kappa-B dependent transcriptional activity in human HCT116 cells assessed normalized inhibitory ratio of at 10 uM for 12 hrs by NF-kappaB cis-acting luciferase reporter gene assay relative to untreated control
HCT-116 [2] = assay: Inhibition of TNF-alpha-induced Nuclear factor-kappa-B-mediated CIAP2 expression in human HCT116 cells pretreated for 30 mins before stimulation with TNFalpha for 15 mins by RT-PCR
HCT-116 [3] = assay: Inhibition of TNF-alpha-induced nuclear translocation of Nuclear factor-kappa-B in human HCT116 cells pretreated for 30 mins before stimulation with TNFalpha for 30 mins by Western blot
HCT-116 [4] = assay: Inhibition of TNF-alpha-induced Nuclear factor-kappa-B-mediated XIAP expression in human HCT116 cells pretreated for 30 mins before stimulation with TNFalpha for 15 mins by RT-PCR
HCT-116 [5] = assay: Inhibition of TNF-alpha-induced Nuclear factor-kappa-B-mediated CXCL1 expression in human HCT116 cells pretreated for 30 mins before stimulation with TNFalpha for 15 mins by RT-PCR

SMILES	Ratio (HCT-116 [1])	also measured
Cc1c(O)ccc2c(=O)c(-c3ccccc3)coc12	0.45	
COc1ccc2c(=O)c(-c3ccc(Cl)cc3)coc2c1C	0.63	
Cc1c(O)ccc2c(=O)c(-c3ccc(Cl)cc3)coc12	1.04	
COc1ccc(-c2coc3cc(OC)c(OC)cc3c2=O)cc1OC	0.4	
O=c1c(-c2ccc(O)cc2)coc2c(O)c(O)ccc12	1.22	
COc1ccc2c(=O)c(-c3ccc(OC)c(OC)c3)coc2c1	0.45	
COc1ccc(-c2coc3cc(O)c(OC)cc3c2=O)cc1	2.37	
COc1ccc(-c2coc3cc(OC)c(Cl)cc3c2=O)cc1O	0.54	
COc1cc(O)c2c(=O)c(-c3ccc(O)cc3)coc2c1	0.34	
COc1cc(OC)c2c(=O)c(-c3ccccc3Cl)coc2c1	0.54	
COc1cc(OC)c2c(=O)c(-c3cccc(Cl)c3)coc2c1	0.63	
COc1ccc(-c2coc3c(C)c(OC)ccc3c2=O)cc1	0.62	
COc1cc2occ(-c3ccccc3Cl)c(=O)c2cc1Cl	0.54	
COc1ccc(-c2coc3cc(O)ccc3c2=O)cc1OC	2.53	
COc1cc(OC)c2c(=O)c(-c3ccc(Br)cc3)coc2c1	0.25	
COc1cc(OC)c2c(=O)c(-c3ccc(Cl)cc3)coc2c1	0.61	
Cc1cc2occ(-c3ccccc3)c(=O)c2cc1Cl	0.32	
Cc1cc2occ(-c3ccc(Cl)cc3Cl)c(=O)c2cc1Cl	0.27	
COc1ccc(-c2coc3c(OC)c(OC)ccc3c2=O)cc1	0.95	
COc1cc(C)c2c(=O)c(-c3ccccc3)coc2c1	0.67	
COc1cc(OC)c2c(=O)c(-c3ccc(OC)c(OC)c3)coc2c1	0.19	inhibition (HCT-116 [2]): Active; inhibition (HCT-116 [3]): Active; inhibition (HCT-116 [4]): Active; inhibition (HCT-116 [5]): Active
COc1ccc2c(=O)c(-c3ccccc3)coc2c1	0.36	
COc1ccc2c(=O)c(-c3ccccc3)coc2c1C	0.23	
